{"source": "patent US12180159B2", "about": "“Activators of the unfolded protein response” (The Board of Trustees of the University of Illinois, priority 2018, dated 2024)", "key": {"[1]": {"tested_on": "(BHPI-sensitive) parental T47D cells", "experiment": "Growth of parental T47D cells (MTS)", "assay_type": "cell-based, human", "settings": "100 nM and 1 μM, 4 days", "description": "ERα containing T47D human breast cancer cells able to survive in 1 μM BHPI were selected by clonal outgrowth. The effect of 100 nM and 1 μM BHPI and (−)-105 on growth of the (BHPI-sensitive) parental T47D cells and partially BHPI-resistant T47D clones 1, 3, 8, and 11 was evaluated. 4,000 cells/well were plated. Cell number was determined by MTS assay from a standard curve of absorbance versus cell number. […] Thus, in 4 days (−)-105 killed some, but not all, of the resistant cells."}, "MCF-7 tumors": {"tested_on": "MCF-7 tumors", "experiment": "MCF-7 orthotopic tumor model", "assay_type": "in vivo, mouse", "description": "FIG. 39. SERK-F6 eradicates wild-type ERα tumors via hyperactivation of aUPR. a, MCF-7 orthotopic tumors were established in Nu/J ovariectomized mice supplemented with a 60 day E2 pellet (0.36 mg) and grown to ˜400 mm^3 (28 days to establish), randomized, then treated with vehicle daily (n=3), vehicle weekly (n=3), fulv. weekly (5 mg/mouse, s.c., n=6), SERK-F6 daily (10 or 40 mg/kg p.o.). Vehicle arms were averaged. p values: *: p<0.05, **: p<0.01, ***: p<0.001, ****: p<0.0001. Tumor images were taken at the end of the study (day 21) and are representative of all tumors (n=6). b-e, MCF-7 cells were orthotopically bi-laterally grafted and tumors were grown until total tumor burden was ˜ 400 mm^3 prior to daily treatment with vehicle or SERK-F6 (40 mg/kg p.o.). Mice (n=5 per arm) were sacrificed after 3 days (b,c) and 7 days (d,e) and tumors harvested. […] Vinculin (Vin) was used as a loading control. […] Error bars represent S.E.M.\n(§1) FIG. 40. SERK-F6 is tolerated, reaches biologically relevant concentrations, and crosses the blood-brain barrier in vivo. a, Serum concentrations of SERK-F6 after indicated doses, route of administration, and time. Concentration was determined via LC/MS/MS analysis. […] AUC: Area Under the Curve, Cmax: maximum concentration, t1/2: half-life. c,d, Mice (CD-1) were treated with the indicated doses and times, then sacrificed and their serum and brains collected. Concentrations were determined via LC/MS/MS analysis. […] Treatment arms: vehicle daily (n=3), vehicle weekly (n=3), fulv. weekly (5 mg/mouse, s.c., n=6), SERK-F6 daily (10 or 40 mg/kg p.o.). Vehicle arms were combined. g, Mass of tumors harvested from mice. h, observed murine weight during this MCF-7 study (n=6). i,j, Tumor measurements for MCF-7 bilateral orthotopic model (n=4-5).\nTo probe the efficacy of SERK-F6 for killing ERα positive tumors, large MCF-7 tumors were grown and then intervened with therapy. […] The mice were then sacrificed prior to complete tumor eradication."}, "[2]": {"tested_on": "ATP levels in TYS-Luc cells", "experiment": "Intracellular ATP levels", "assay_type": "cell-based, human", "settings": "1,000 nM", "description": "TYS-Luc cells were maintained DMSO vehicle (Veh), 1,000 nM BHPI, 1,000 nM (−)-105 with and without 10,000 nM thapsigargin (THG) for the indicated times. ATP levels were determines using a kit and relative ATP levels were from a standard curve. […] (n=3±SEM)."}, "[3]": {"tested_on": "TYS-Luc (T47DERαY537S-Luc human breast cancer cells) orthotopic tumors", "experiment": "Orthotopic TYS-Luc mouse xenograft, bioluminescent imaging (BLI) of tumor flux", "assay_type": "in vivo", "description": "In a treatment and vehicle-controlled mouse tumor study, human breast cancer cells were engineered to contain both the lethal ERαY537S mutation found in metastatic breast cancer, and the gene for firefly luciferase—when the appropriate chemical is added, the firefly luciferase breaks down the chemical and light is produced. Using a sensitive detector called an imaging system, this allows us to image the tumors inside live mice. This is called bioluminescent imaging, or BLI. Large tumors were allowed to form. Then (−)-105 was injected daily under the skin for three weeks. Using the imaging system, the effect of (−)-105 on the tumors was monitored. At the same time the effect of the vehicle in which (−)-105 was dissolved on tumors was also monitored.\nA study was performed to determine what happens after stopping treatment with (−)-105 (Table 2). The study was designed to show whether the micro-tumors would remain dormant, or whether they would regrow. At the end of the three-week treatment, there is residual material that gives off a tiny amount of light which are termed “micro-tumors”. Based on sensitivity of the imaging system, it is believed these micro-tumors contain anywhere from 0-˜1,000 cancer cells; the micro-tumors will not be visible to the naked eye. Seeing them requires the powerful imaging system, or a microscope. To test whether these cells are either dead, or no longer dividing and are dormant, the cells two and 4 weeks after they stopped receiving any treatment were imaged. This study tested whether growing cancer cells have been eradicated; this study continues.\nIn a 3-week study, large breast tumors were present at start of treatment and regressed as shown in the image of FIG. 17. The study was performed using Orthotopic TYS-Luc (injected cells: T47DERα Y537-Luc human breast cancer cells), e.g., the most lethal ERα mutation in human in metastatic breast cancer. Tumors were grown in NSG mice. Further details are provided in the Examples.\nExperimental Details of the Xenografts: TYS-Luc cells (5,000,000 cells in Matrigel) were injected into the upper mammary fat pad of ovariectomized female NSG (SCID) mice (Jackson labs). After 10 weeks, on day 0, large tumors (size range: 100-600 mm^3) were present. Mice were treated with the vehicle used to dissolve (−)-105, or (−)-105 at 40 mg/kd daily by subcutaneous injection. For bioluminescent imaging (BLI) of the tumors, the mice were anesthetized with isoflurane and Lucerfin, the luciferase substrate, was injected into the mice. Flux, the total member of light photons hitting the detector in one second was measured using an IVIS ([…]). Shown is the flux (in millions of units per second) for the entire area containing each tumor, or an equivalent area when the tumor is tiny or undetectable and the percent change in tumor size at each time a measurement was taken (day 0, day 3, week 1, week 2, week 3). Then treatment was stopped, and another measurement was taken two weeks letter. Note that tumors were also measured with calipers. […] After three days all the (−)-105 tumors has declined to undetectable using calipers."}, "[4]": {"experiment": "Pharmacokinetics, brain penetration and tolerability in mice", "assay_type": "in vivo, mouse", "description": "as §1\nThe pharmacokinetics of SERK-F6 was measured in mice (FIG. 40A-B)."}, "[5]": {"settings": "after 3 days of treatment, all 5 mice"}}, "note": "“And” between values parts separate entries of the source, which are not always exact repeats. Identical values can stand only once."}
{"smiles": "O=C1Nc2c(C(F)(F)F)cccc2C1(c1ccc(O)cc1)c1ccc(OC(F)(F)F)cc1", "note": "(single isomer, unassigned; (-)) [(−)-105, 3-(4-hydroxyphenyl)-3-(4-(trifluoromethoxy)phenyl)-7-(trifluoromethyl)indolin-2-one]", "values": [{"measurement": "growth / killing of parental T47D cells", "setting": "[1]", "result": "killed all the T47D cells"}, {"measurement": "in-vivo UPR markers in tumors", "setting": "MCF-7 tumors; 40 mg/kg p.o., tumors harvested before eradication", "result": "increases in P-PERK and P-eiF2alpha levels"}, {"measurement": "effect on large established MCF-7 tumors", "setting": "MCF-7 tumors; mouse, in vivo", "result": "dramatic tumor regressions"}, {"measurement": "intracellular ATP levels", "setting": "[2]", "result": "reduces intracellular ATP levels"}, {"measurement": "micro-tumor regrowth after stopping treatment", "setting": "[3]; 4 weeks after stopping treatment", "result": "NO “MICRO-TUMOR” REGROWTH"}, {"measurement": "tumor shrinkage (regression) by BLI, 4 of the 5 tumors", "setting": "[3]; after 3 days of treatment, 4 of 5 tumors", "result": "more than 99.9%"}, {"measurement": "tumor shrinkage (regression) by BLI, all five tumors", "setting": "[3]; [5]", "result": "more than 99%"}, {"measurement": "tumor size using calipers", "setting": "[3]; [5]", "result": "undetectable"}, {"measurement": "tumor shrinkage by BLI, 3 of the remaining 4 mice", "setting": "[3]; after three weeks", "result": "more than 99.9%"}, {"measurement": "tumor change in one mouse (complete regression)", "setting": "[3]; after three weeks, one mouse", "result": "−100", "unit": "%"}, {"measurement": "Day 0 Flux", "setting": "[3]; per mouse, day 0 (start of treatment, baseline)", "result": "2,130 millions of photons/sec and 277 millions of photons/sec and 72.6 millions of photons/sec and 1,880 millions of photons/sec and 1,650 millions of photons/sec"}, {"measurement": "Day 14 % Change in Tumor Flux", "setting": "[3]; per mouse, day 14 vs day 0", "result": 99.66, "unit": "%"}, {"measurement": "health of the treated mice / toxicity", "setting": "[3]; three-week treatment", "result": "No toxicity"}, {"measurement": "micro-tumor regrowth after stopping treatment", "setting": "[3]; two weeks after treatment was stopped", "result": "the microtumors had not started growing again"}, {"measurement": "tumor size using calipers", "setting": "[3]; within seven days, all 5 tumors", "result": "undetectable"}, {"measurement": "blood-brain barrier penetration", "setting": "[4]", "result": "blood-brain barrier penetrant"}, {"measurement": "tolerability in vivo", "setting": "[4]", "result": "well-tolerated"}]}
